The source of these data is patent US4251444A, “Thiazepino-[4,3-b]-isoquinoline-1,5-dione derivatives and precursors” (American Home Products Corporation, priority 1980, dated 1981).

The test system of the experiment is male spontaneously hypertensive rats. Description: blood pressure lowering, systolic pressure by Decker Caudal Plethysmograph. The experiment is classed as in vivo. To be noted: four hours after administration of a 50 milligram dose; standard experimental rat, oral. The procedure: The compounds tested were administered orally and blood pressure was read prior to and at 1.5, 4 and 24 hours after drug administration.

Turning to `CC(CSC(=O)c1ccccc1)C(=O)N1Cc2ccccc2CC1C(=O)O` (single isomer, unassigned) [Example 4, 2-(3-Benzoylthio-2-methylpropanoyl)-1,2,3,4-tetrahydroisoquinoline-3-carboxylic acid], the “reduction of blood pressure” value was 29 millimeters.
